This note sets out measurements from ChEMBL document CHEMBL1140736, “High-throughput log P determination by ultraperformance liquid chromatography: a convenient tool for medicinal chemists” (J Med Chem, 2008).

Data set [1] is described as follows: Partition coefficient, log P of the compound. Type of data set: physicochemical. The following applies: octanol/water.
Data set [2] in a line: Partition coefficient, log P by UPLC method. Particulars: octanol/water. The format is physicochemical.

Molecules are shown by their SMILES.

For `CCCCOc1cc(C(=O)NCCN(CC)CC)c2ccccc2n1` [DIBUCAINE], in data set [1], the logP is 4.19.
On the same count and under the same terms, the value for `CCCCNc1ccc(C(=O)OCCN(C)C)cc1` [TETRACAINE] was 3.39.
Turning to `CCCCN1CCCCC1C(=O)Nc1c(C)cccc1C` (stereo not drawn) [BUPIVACAINE], the values for the logP in data set [1] and in data set [2] were 3.72 and 3.8, respectively.
For `CC(C)NCC(O)COc1ccc(COCCOC(C)C)cc1` (stereo not drawn) [BISOPROLOL] the same measures were 2.15 and 2.6.
For `CC(C)NCC(O)COc1cccc2[nH]ccc12` (stereo not drawn) [PINDOLOL] the same measures were 1.83 and 1.9.
For `CC(C)NCC(O)COc1cccc2[nH]c3ccccc3c12` (stereo not drawn) [CARAZOLOL] the same measures were 3.73 and 3.4.
Turning to `CCCNC(C)C(=O)Nc1ccccc1C` (stereo not drawn) [PRILOCAINE], the logP in data set [1] was 2.12; in data set [2], 2.3.
For `CC(=O)Oc1c(C)cc(OCC(O)CNC(C)C)c(C)c1C` (stereo not drawn) [METIPRANOLOL] the same measures were 2.81 and 3.
`Cc1cccc(C)c1NC(=O)C1CCCCN1C` (stereo not drawn) [MEPIVACAINE]: the logP in data set [2] is 2.2.
Still for that read-out and setting: for `C=CCc1ccccc1OCC(O)CNC(C)C` (stereo not drawn) [ALPRENOLOL] the value was 3.4.
In the case of `CCCCN(CCCC)CCCOC(=O)c1ccc(N)cc1` [BUTACAINE], the logP in data set [1] was found to be 4.26; in data set [2], 4.7.
In the case of `C=CCOc1ccccc1OCC(O)CNC(C)C` (stereo not drawn) [OXPRENOLOL], the figures for the logP in data set [1] and in data set [2] were 2.51 and 2.6, respectively.
For `CCN(CC)CCOC(=O)c1ccc(N)cc1` [PROCAINE] the same measures were 2.03 and 2.1.
Turning to `COCCc1ccc(OCC(O)CNC(C)C)cc1` (stereo not drawn) [METOPROLOL], the logP in data set [2] was found to be 2.2.
